The source made the active and inactive calls. The calls are words filed in the database; no cut-off is given here.
Legend:
Pseudomonas aeruginosa [1] = experiment: Antibacterial activity against Pseudomonas aeruginosa 100036 assessed as reduction in bacterial growth by measuring doxycycline MIC at 8 ug/ml incubated for 18 hrs in presence of doxycycline by broth microdilution assay (reference value: 64 ug/ml); format: functional; details: dose 8 µg/ml
Pseudomonas aeruginosa [2] = experiment: Antibacterial activity against Pseudomonas aeruginosa 91433 assessed as fractional inhibitory concentration incubated for 18 hrs in presence of doxycycline by broth microdilution assay; format: functional
HepG2 = experiment: Cytotoxicity against human HepG2 cells assessed as cell viability at 50 uM incubated for 48 hrs in presence of doxycycline by prestoblue assay; format: cell-based; details: hepg2, 48 h
Acinetobacter baumannii [3] = experiment: Potentiation of doxycycline-induced antibacterial activity against Acinetobacter baumannii ATCC 17978 assessed as fold change in doxycycline MIC at 9.8 uM incubated for 18 hrs in presence of doxycycline by broth microdilution assay relative to control; format: functional
Pseudomonas aeruginosa [4] = experiment: Antibacterial activity against Pseudomonas aeruginosa 260-97103 assessed as potentiation of doxycycline-induced antibacterial activity by measuring doxycycline MIC at 9.8 uM incubated for 18 hrs in presence of doxycycline by broth microdilution assay (reference value: 16 ug/ml); format: functional
Pseudomonas aeruginosa [5] = experiment: Potentiation of doxycycline-induced antibacterial activity against Pseudomonas aeruginosa 264-101354 assessed as fold change in doxycycline MIC at 9.8 uM incubated for 18 hrs in presence of doxycycline by broth microdilution assay relative to control; format: functional
Escherichia coli = experiment: Potentiation of doxycycline-induced antibacterial activity against Escherichia coli ATCC 25922 assessed as fold change in doxycycline MIC at 9.8 uM incubated for 18 hrs in presence of doxycycline by broth microdilution assay relative to control; format: functional
Pseudomonas aeruginosa [6] = experiment: Antibacterial activity against Pseudomonas aeruginosa 259-96918 assessed as potentiation of chloramphenicol-induced antibacterial activity by measuring chloramphenicol MIC at 9.8 uM incubated for 18 hrs in presence of chloramphenicol by broth microdilution assay (reference value: 1024 ug/ml); format: functional
Pseudomonas aeruginosa [7] = experiment: (§1) Potentiation of chloramphenicol-induced antibacterial activity against Pseudomonas aeruginosa PAO750 harboring MexAB-OprM, MexCD-OprJ, MexEF-OprN, Mex JK, MexXY and the OM protein OpmH deletion mutant assessed as fold change in chloramphenicol MIC at <=9.8 uM incubated for 18 hrs in presence of chloramphenicol by broth microdilution assay; format: functional; details: dose microM <=9.8
Pseudomonas aeruginosa [8] = experiment: Potentiation of doxycycline-induced antibacterial activity against Pseudomonas aeruginosa 100036 assessed as fold change in doxycycline MIC at 9.8 uM incubated for 18 hrs in presence of doxycycline by broth microdilution assay relative to control; format: functional
Pseudomonas aeruginosa [9] = experiment: Potentiation of doxycycline-induced antibacterial activity against Pseudomonas aeruginosa 114228 assessed as fold change in doxycycline MIC at 9.8 uM incubated for 18 hrs in presence of doxycycline by broth microdilution assay relative to control; format: functional
Pseudomonas aeruginosa [10] = experiment: Antibacterial activity against Pseudomonas aeruginosa 114228 assessed as fractional inhibitory concentration index incubated for 18 hrs in presence of tigecycline by broth microdilution assay; format: functional
Pseudomonas aeruginosa [11] = experiment: Antibacterial activity against Pseudomonas aeruginosa 101885 assessed as potentiation of doxycycline-induced antibacterial activity by measuring doxycycline MIC at 9.8 uM incubated for 18 hrs in presence of doxycycline by broth microdilution assay (reference value: 64 ug/ml); format: functional
Pseudomonas aeruginosa [12] = experiment: Antibacterial activity against Pseudomonas aeruginosa 260-97103 infected in Galleria mellonella larvae assessed as survival of larvae at 75 mg/kg treated at 3 hrs post-infection in presence of chloramphenicol and measured after 18 hrs relative to control; format: functional
Pseudomonas aeruginosa [13] = experiment: Antibacterial activity against Pseudomonas aeruginosa 91433 assessed as fractional inhibitory concentration index incubated for 18 hrs in presence of rifampicin by broth microdilution assay; format: functional
Pseudomonas aeruginosa [14] = experiment: Antibacterial activity against Pseudomonas aeruginosa 259-96918 assessed as potentiation of doxycycline-induced antibacterial activity by measuring doxycycline MIC at 9.8 uM incubated for 18 hrs in presence of doxycycline by broth microdilution assay (reference value: 32 ug/ml); format: functional
Pseudomonas aeruginosa [15] = experiment: Potentiation of doxycycycline-induced bactericidal activity against Pseudomonas aeruginosa PAO1 assessed as reduction in bacterial colonies at 4.9 to 9.8 microM incubated for upto 24 hrs in LB medium in presence of doxycycline followed by plating on agar plate and measured after 20 hrs by time-kill assay; format: functional, organism-based; details: dose 4.9-9.8 µM, time hrs <=44
Pseudomonas aeruginosa [16] = experiment: Potentiation of doxycycycline-induced bactericidal activity against Pseudomonas aeruginosa PAO1 assessed as bacterial viability at 9.8 microM incubated for 9 hrs in LB medium in presence of doxycycline followed by plating on agar plate and measured after 20 hrs by time-kill assay; format: functional; details: time 29 hrs
Pseudomonas aeruginosa [17] = experiment: Antibacterial activity against Pseudomonas aeruginosa 101243 assessed as fractional inhibitory concentration index incubated for 18 hrs in presence of rifampicin by broth microdilution assay; format: functional
Pseudomonas aeruginosa [18] = experiment: Antibacterial activity against Pseudomonas aeruginosa 260-97103 infected in Galleria mellonella larvae assessed as survival of larvae at 100 mg/kg treated at 3 hrs post-infection in presence of doxycycline and measured after 18 hrs relative to control; format: functional
Pseudomonas aeruginosa [19] = experiment: Potentiation of chloramphenicol-induced bactericidal activity against Pseudomonas aeruginosa PAO1 assessed as reduction in bacterial colonies incubated for >= 24 hrs in LB medium in presence of chloramphenicol followed by plating on agar plate and measured after 20 hrs by time-kill assay; format: functional, organism-based; details: dose 4.9-9.8 µM, time hrs >=44
Pseudomonas aeruginosa [20] = experiment: as §1, with “doxycycline-induced” for “chloramphenicol-induced”, “doxycycline” for “chloramphenicol”; format: functional; details: dose microM <=9.8
Pseudomonas aeruginosa [21] = experiment: Antibacterial activity against Pseudomonas aeruginosa 100036 assessed as reduction in bacterial growth by measuring doxycycline MIC at 4 ug/ml incubated for 18 hrs in presence of doxycycline by broth microdilution assay (reference value: 64 ug/ml); format: functional; details: dose 4 µg/ml
Pseudomonas aeruginosa [22] = experiment: Antibacterial activity against Pseudomonas aeruginosa 259-96918 assessed as reduction in bacterial growth by measuring chloramphenicol MIC at 2 ug/ml incubated for 18 hrs in presence of chloramphenicol by broth microdilution assay (reference value: 1024 ug/ml); format: functional; details: dose 2 µg/ml
Pseudomonas aeruginosa [23] = experiment: Antibacterial activity against Pseudomonas aeruginosa 114228 assessed as potentiation of chloramphenicol-induced antibacterial activity by measuring chloramphenicol MIC at 7.6 uM incubated for 18 hrs in presence of chloramphenicol by broth microdilution assay (reference value: 64 ug/ml); format: functional
Enterobacter cloacae = experiment: Potentiation of doxycycline-induced antibacterial activity against Enterobacter cloacae ATCC 117029 assessed as fold change in doxycycline MIC at 7.6 uM incubated for 18 hrs in presence of doxycycline by broth microdilution assay relative to control; format: functional
Acinetobacter baumannii [24] = experiment: Potentiation of chloramphenicol-induced antibacterial activity against Acinetobacter baumannii ATCC 17978 assessed as fold change in chloramphenicol MIC at 7.6 uM incubated for 18 hrs in presence of chloramphenicol by broth microdilution assay relative to control; format: functional
Pseudomonas aeruginosa [25] = experiment: Potentiation of chloramphenicol-induced antibacterial activity against Pseudomonas aeruginosa 260-97103 assessed as fold change in chloramphenicol MIC at 7.6 uM incubated for 18 hrs in presence of chloramphenicol by broth microdilution assay relative to control; format: functional
Pseudomonas aeruginosa [26] = experiment: Potentiation of chloramphenicol-induced antibacterial activity against Pseudomonas aeruginosa 101243 assessed as fold change in chloramphenicol MIC at 7.6 uM incubated for 18 hrs in presence of chloramphenicol by broth microdilution assay relative to control; format: functional

## NC[C@H]1O[C@H](O[C@H]2[C@H](O)[C@@H](O[C@H]3O[C@H](CO)[C@@H](O)[C@H](N)[C@H]3O)[C@H](N)C[C@@H]2N)[C@H](N)C[C@@H]1O [TOBRAMYCIN]
Pseudomonas aeruginosa [1]
  MIC: 64 µg/mL
Pseudomonas aeruginosa [2]
  FIC: 0.5

## CO[C@H]1/C=C/O[C@@]2(C)Oc3c(C)c(O)c4c(O)c(c(/C=N/N5CCN(Cc6cn(CCCCCCO[C@@H]7[C@@H](O[C@H]8O[C@H](CO)[C@@H](O)[C@H](N)[C@H]8O)[C@H](N)C[C@H](N)[C@H]7O[C@H]7O[C@H](CN)[C@@H](O)C[C@H]7N)nn6)CC5)c(O)c4c3C2=O)NC(=O)/C(C)=C\C=C\[C@H](C)[C@H](O)[C@@H](C)[C@@H](O)[C@@H](C)[C@H](OC(C)=O)[C@@H]1C.Cl.Cl.Cl.Cl.Cl
HepG2
  Activity: Non-Toxic
Acinetobacter baumannii [3]
  fold change (FC): 0
Pseudomonas aeruginosa [4]
  MIC: 0.125 µg/mL
Pseudomonas aeruginosa [5]
  fold change (FC): 4
Escherichia coli
  fold change (FC): 0
Pseudomonas aeruginosa [6]
  MIC: 256 µg/mL
Pseudomonas aeruginosa [7]
  fold change (FC): 4
Pseudomonas aeruginosa [8]
  fold change (FC): 4
Pseudomonas aeruginosa [9]
  fold change (FC): 4
Pseudomonas aeruginosa [10]
  fractional inhibitory concentration index (FICI): <0.53
Pseudomonas aeruginosa [11]
  MIC: 1 µg/mL
Pseudomonas aeruginosa [12]
  survival at 75 mg/kg: 55%
Pseudomonas aeruginosa [13]
  fractional inhibitory concentration index (FICI): 1.13
Pseudomonas aeruginosa [14]
  MIC: 1 µg/mL
Pseudomonas aeruginosa [15]
  Activity: Active
Pseudomonas aeruginosa [16]
  Activity: <10 CFU/ml
Pseudomonas aeruginosa [17]
  fractional inhibitory concentration index (FICI): 0.56
Pseudomonas aeruginosa [18]
  survival at 100 mg/kg: 87%
Pseudomonas aeruginosa [19]
  Activity: Dose-dependent effect
Pseudomonas aeruginosa [20]
  fold change (FC): 4

## CO[C@H]1/C=C/O[C@@]2(C)Oc3c(C)c(O)c4c(O)c(c(/C=N/N5CCN(C)CC5)c(O)c4c3C2=O)NC(=O)/C(C)=C\C=C\[C@H](C)[C@H](O)[C@@H](C)[C@@H](O)[C@@H](C)[C@H](OC(C)=O)[C@@H]1C [RIFAMPIN]
Pseudomonas aeruginosa [21]
  MIC: 64 µg/mL
Pseudomonas aeruginosa [22]
  MIC: 1020 µg/mL

## CO[C@H]1/C=C/O[C@@]2(C)Oc3c(C)c(O)c4c(O)c(c(/C=N/N5CCN(Cc6cn(CCCCCCCCCCCCO[C@@H]7[C@@H](O[C@H]8O[C@H](CO)[C@@H](O)[C@H](N)[C@H]8O)[C@H](N)C[C@H](N)[C@H]7O[C@H]7O[C@H](CN)[C@@H](O)C[C@H]7N)nn6)CC5)c(O)c4c3C2=O)NC(=O)/C(C)=C\C=C\[C@H](C)[C@H](O)[C@@H](C)[C@@H](O)[C@@H](C)[C@H](OC(C)=O)[C@@H]1C.O=C(O)C(F)(F)F.O=C(O)C(F)(F)F.O=C(O)C(F)(F)F.O=C(O)C(F)(F)F.O=C(O)C(F)(F)F
Pseudomonas aeruginosa [23]
  MIC: 8 µg/mL
Enterobacter cloacae
  fold change (FC): 0
Acinetobacter baumannii [24]
  fold change (FC): 0
Pseudomonas aeruginosa [25]
  fold change (FC): 4
Pseudomonas aeruginosa [26]
  fold change (FC): 4

Reference: ChEMBL document CHEMBL4715829, “Heterodimeric Rifampicin-Tobramycin conjugates break intrinsic resistance of Pseudomonas aeruginosa to doxycycline and chloramphenicol in vitro and in a Galleria mellonella in vivo model” (Eur J Med Chem, 2019)
